# From patent publication US12351580B2, “NLRP3 modulators” (Innate Tumor Immunity, Inc., priority 2017, dated 2025)
# Target: T1, hNLRP3 (Homo sapiens, UniProt Q96P20)
# T1 construct: THP-1 cells were purchased from the American Type Culture Collection; host or cells: THP-1 cells, PMA-differentiated
# Assay: Measurement of IL-1β production in PMA-differentiated THP-1 cells (hNLRP3 agonist; ELISA, alternative and hTRF procedures)
# Type: cell-based
# Procedure: Measurement of IL-1β production in PMA-differentiated THP-1 cells THP-1 cells were purchased from the American Type Culture Collection and sub-cultured according to instructions from the supplier. Prior to experiments, cells were cultured in RPMI 1640 containing 10% heat inactivated FBS, penicillin (100 units/ml) and streptomycin (100 μg/ml), and maintained in log phase prior to experimental setup. Prior to the experiment THP-1 were treated with PMA (Phorbol 12-myristate 13-acetate) ([…]) for 24 hours. The day of the experiment the media was removed and attaching cells were treated with trypsin for 2 minutes, cells were then collected, washed with PBS (phosphate buffer saline), spin down, resuspended in 2% heat inactivated FBS with RPMI at a concentration of 1×10^6 cells/ml, and 100 μl was plated in a 96 well plate. Compounds were dissolved in dimethyl sulfoxide (DMSO) and added to the culture medium to achieve desired concentration (e.g. 100, 30, 10, 3, 1, 0.3 or 0.1 μM). Cells were incubated with compounds for 4 hours. Cell free supernatant was collected and the production of […] was evaluated by ELISA. A vehicle only control was run concurrently with each experiment. Final DMSO concentration was 1%.
# Measurement of IL-1β Production in PMA-Differentiated THP-1 Cells (Alternative Procedure)
# THP-1 cells were purchased from the American Type Culture Collection and sub-cultured according to instructions from the supplier. Prior to experiments, cells were cultured in RPMI 1640 containing 10% heat inactivated FBS, penicillin (100 units/ml), streptomycin (100 μg/ml), HEPES (10 mM) and sodium pyruvate (1 mM) and maintained in log phase prior to experimental setup. Prior to the experiment, THP-1 cells were treated with PMA (Phorbol 12-myristate 13-acetate) (20 μg/ml) overnight. The day of the experiment, the media was removed and attached cells were treated with trypsin for 2 minutes, cells were then collected, washed with PBS (phosphate buffer saline), pelleted by centrifugation and resuspended in 2% heat inactivated FBS with RPMI at a concentration of 50,000 cells/well in a 384 well plate. Cell free supernatant was collected and the production of IL-1β was evaluated by ELISA. Compounds were dissolved in dimethyl sulfoxide (DMSO) and added to the culture medium to achieve desired concentration (e.g. 100, 30, 10, 3, 1, 0.3 or 0.1 μM). Cells were incubated with compounds for 2 hours. A vehicle only control was run concurrently with each experiment. Final DMSO concentration was 1%.
# Measurement of IL-1β Production—hTRF Protocol (Second Alternative Procedure)
# Serial dilutions of compounds in DMSO were added to low volume 384 well plates at 100 nl/well using an ECHO 550 acoustic dispenser (Labcyte) to achieve final starting concentration of 10 μM in assay.
# THP-1 cells in RPMI (Gibco, 11875) media with 10% FBS at a density of 1×10^6 cell/ml in a T175 flask were treated with a final concentration of phorbol 12-myristate 13-acetate (PMA) (Sigma, P1585) of 50 ng/ml overnight at 37° C. at 5% CO2 for differentiation. Cells were harvested the next day after rinsing well with dPBS using 0.5% trypsin. A cell solution was prepared of 1×10^6 cells/ml for 50,000 cells in 50 μl/well in RPMI media with 2% FBS. Cells were plated using a multichannel pipette onto the compound dilutions in Greiner, 384 well, black clear bottom tissue culture treated plates (781090). The plates were incubated in 37° C. incubator at 5% CO2 for 2 hours.
# After the 2 hour incubation, the cell plates were spun in the centrifuge for 5 minutes at 1200 rpm. Using the Felix (CyBio), 8 μl of the supernatant was transferred to 384 well, low volume, white proxy plates. (Perkin Elmer, 6008230). A human IL1beta hTRF kit was used to analyze the supernatant (CISBIO, 62HIL1BPEG). The kit instructions were followed for preparing the IL1Beta standard curve and then the antibodies from the kit were diluted 1:40 rather than 1:20 as kit instructed.
# T1 sequence (Q96P20 whole entry): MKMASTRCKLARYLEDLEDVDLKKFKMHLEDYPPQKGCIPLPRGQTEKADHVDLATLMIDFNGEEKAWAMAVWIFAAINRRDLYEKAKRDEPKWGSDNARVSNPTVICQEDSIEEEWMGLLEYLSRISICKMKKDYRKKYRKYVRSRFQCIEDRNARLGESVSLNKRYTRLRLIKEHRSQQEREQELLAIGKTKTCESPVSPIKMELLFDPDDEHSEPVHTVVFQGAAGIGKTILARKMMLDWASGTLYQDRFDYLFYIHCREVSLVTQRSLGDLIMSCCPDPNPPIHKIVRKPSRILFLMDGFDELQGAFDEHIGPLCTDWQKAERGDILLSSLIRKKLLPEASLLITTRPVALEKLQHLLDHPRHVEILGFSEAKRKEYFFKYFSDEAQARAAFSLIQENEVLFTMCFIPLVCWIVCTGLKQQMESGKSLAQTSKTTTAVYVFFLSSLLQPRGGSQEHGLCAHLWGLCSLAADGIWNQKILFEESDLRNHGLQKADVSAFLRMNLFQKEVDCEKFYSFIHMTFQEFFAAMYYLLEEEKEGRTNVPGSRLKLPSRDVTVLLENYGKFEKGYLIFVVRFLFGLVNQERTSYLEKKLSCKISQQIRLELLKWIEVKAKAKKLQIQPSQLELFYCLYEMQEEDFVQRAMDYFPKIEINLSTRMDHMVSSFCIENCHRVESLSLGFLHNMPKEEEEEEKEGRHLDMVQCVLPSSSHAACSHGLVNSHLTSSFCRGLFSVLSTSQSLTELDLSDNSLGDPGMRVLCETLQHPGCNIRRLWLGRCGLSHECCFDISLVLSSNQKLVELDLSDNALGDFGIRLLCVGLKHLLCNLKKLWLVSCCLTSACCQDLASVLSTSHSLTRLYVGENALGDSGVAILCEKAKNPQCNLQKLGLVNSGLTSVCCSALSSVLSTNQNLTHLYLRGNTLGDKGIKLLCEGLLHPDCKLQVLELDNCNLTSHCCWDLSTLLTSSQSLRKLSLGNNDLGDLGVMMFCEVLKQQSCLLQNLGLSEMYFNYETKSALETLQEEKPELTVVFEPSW
row,EC50 [µM],Structure (SMILES)
1,0.52,CCN(Cc1nc2c(N)nc3cc(C4=CCCC4)ccc3c2[nH]1)C(C)=O [Compound 183]
2,64,CC(=O)N(C)Cc1nc2c(N)nc3ccccc3c2[nH]1 [Compound 187]
3,5.7,COC(=O)CCCn1c(CN(C)C(C)=O)nc2c(N)nc3ccccc3c21 [Compound 188]
4,10.3,CCN(Cc1nc2c(N)nc3cc(C4CC4)ccc3c2n1Cc1ccc(OC)cc1)C(C)=O [Compound 190]
5,65,CCN(Cc1nc2c(N)nc3ccccc3c2n1CCCNC(=O)OC(C)(C)C)C(C)=O [Compound 191]
6,7.9,CCN(Cc1nc2c(N)nc3ccc(Br)cc3c2[nH]1)C(C)=O [Compound 194]
7,32.7,CCN(Cc1nc2c(N)nc3cc(N4CCNC4=O)ccc3c2n1Cc1ccc(OC)cc1)C(C)=O [Compound 196]
8,13.7,CCN(Cc1nc2c(N)nc3ccc(Cl)cc3c2[nH]1)C(C)=O [Compound 197]
9,24.2,CCOC(=O)c1cc2c(cc1Br)nc(N)c1nc(CN(CC)C(C)=O)[nH]c12 [Compound 198]
10,11.9,CCN(Cc1nc2c(N)nc3ccc(Br)cc3c2[nH]1)C(=O)OC [Compound 200]
11,20.8,CCN(Cc1nc2c(N)nc3ccc(Br)cc3c2[nH]1)S(C)(=O)=O [Compound 201]
12,35.9,CCN(Cc1nc2c(N)nc3ccc(Br)cc3c2[nH]1)S(=O)(=O)c1ccc(C)cc1 [Compound 202]
13,10.8,CCN(Cc1nc2c(N)nc3ccc(Br)cc3c2[nH]1)C(=O)C(C)C [Compound 203]
14,6.7,CCN(Cc1nc2c(N)nc3ccc(Br)cc3c2[nH]1)C(=O)c1ccccc1 [Compound 204]
15,36,CCN(Cc1nc2c(N)nc3ccccc3c2n1CCC(=O)N1CCOCC1)C(=O)OC(C)(C)C [Compound 205]
16,73,CCN(Cc1nc2c(N)nc3ccc(-n4cccn4)cc3c2[nH]1)C(C)=O [Compound 207]
17,22,CCN(Cc1nc2c(N)nc3cc(Br)ccc3c2n1CCCC(=O)N1CCN(C)CC1)C(C)=O [Compound 209]
18,61,CCN(Cc1nc2c(N)nc3cc(Br)ccc3c2n1CCCC(=O)NC)C(C)=O [Compound 210]
19,40,CCN(Cc1nc2c(N)nc3ccccc3c2n1CCC(=O)N1CCN(C(=O)OC(C)(C)C)CC1)C(=O)OC(C)(C)C [Compound 211]
20,85,CCN(Cc1nc2c(N)nc3ccccc3c2n1CCC(=O)N1CCN(C(=O)OC(C)(C)C)CC1)C(C)=O [Compound 212]
21,17.6,CCN(Cc1nc2c(N)nc3cc(Br)ccc3c2n1CCCC(=O)N(C)C)C(C)=O [Compound 213]
22,51.5,CCN(Cc1nc2c(N)nc3cc(Br)ccc3c2n1CCCC(=O)N1CCOCC1)C(C)=O [Compound 214]
23,18.2,CN(C)C(=O)CCCn1c(CN2CCCC2=O)nc2c(N)nc3cc(Br)ccc3c21 [Compound 215]

# More lines, now with the values behind:
row,Structure (SMILES),EC50 [µM]
1,Nc1nc2cc(-n3cccn3)ccc2c2[nH]c(CN3CC(c4ccccc4)CC3=O)nc12 (stereo not drawn) [Compound 103],0.52
2,CCN(Cc1nc2c(N)nc3cc(C)ccc3c2[nH]1)C(C)=O [Compound 104],0.6
3,"CCNCc1nc2c(N)nc3cc(-c4cc[nH]n4)ccc3c2n1C [Compound 106, 2-((Ethylamino)methyl)-1-methyl-7-(1H-pyrazol-3-yl)-1H-imidazo[4,5-c]quinolin-4-amine]",0.7
4,"CCN(Cc1nc2c(N)nc3cc(-n4cccn4)ccc3c2[nH]1)S(C)(=O)=O [Compound 108, N-((4-Amino-7-(1H-pyrazol-1-yl)-1H-imidazo[4,5-c]quinolin-2-yl)methyl)-N-ethylmethanesulfonamide]",0.87
5,"CCN(Cc1nc2c(N)nc3cc(-c4cc[nH]n4)ccc3c2[nH]1)C(=O)OC(C)(C)C [Compound 109, tert-Butyl ((4-amino-7-(1H-pyrazol-3-yl)-1H-imidazo[4,5-c]quinolin-2-yl)methyl)(ethyl)carbamate]",0.88
6,"CCN(Cc1nc2c(N)nc3cc(-c4cc[nH]n4)ccc3c2[nH]1)C(=O)N(C)C [Compound 110, 1-((4-Amino-7-(1H-pyrazol-3-yl)-1H-imidazo[4,5-c]quinolin-2-yl)methyl)-1-ethyl-3,3-dimethylurea]",0.9
7,Nc1nc2cc(C(F)(F)F)ccc2c2[nH]c(CN3CCCC3=O)nc12 [Compound 163],48.4
8,CCN(Cc1nc2c(N)nc3ccccc3c2n1CCCC(=O)OC)C(C)=O [Compound 164],4.6
9,"CCN(Cc1nc2c(N)nc3cc(-c4ccccc4)ccc3c2[nH]1)C(C)=O [Compound 165, N-[(4-amino-7-phenyl-1H-imidazo[4,5-c]quinolin-2-yl)methyl]-N-ethylacetamide]",0.19
10,"CCN(Cc1nc2c(N)nc3cc(-c4cccnc4)ccc3c2[nH]1)C(C)=O [Compound 166, N-[(4-amino-7-pyridin-3-yl-1H-imidazo[4,5-c]quinolin-2-yl)methyl]-N-ethylacetamide]",3.4
11,"CCN(Cc1nc2c(N)nc3cc(-c4ccncc4)ccc3c2[nH]1)C(C)=O [Compound 167, N-[(4-amino-7-pyridin-4-yl-1H-imidazo[4,5-c]quinolin-2-yl)methyl]-N-ethylacetamide]",58
12,"CCN(Cc1nc2c(N)nc3cc(-c4cc(C)nn4C)ccc3c2[nH]1)C(C)=O [Compound 168, N-[[4-amino-7-(2,5-dimethylpyrazol-3-yl)-1H-imidazo[4,5-c]quinolin-2-yl]methyl]-N-ethylacetamide]",101
13,"CCCn1cc(-c2ccc3c(c2)nc(N)c2nc(CN(CC)C(C)=O)[nH]c23)cn1 [Compound 169, N-[[4-amino-7-(1-propylpyrazol-4-yl)-1H-imidazo[4,5-c]quinolin-2-yl]methyl]-N-ethylacetamide]",92
14,"CCN(Cc1nc2c(N)nc3cc(C(C)C)ccc3c2[nH]1)C(C)=O [Compound 170, N-[(4-amino-7-propan-2-yl-1H-imidazo[4,5-c]quinolin-2-yl)methyl]-N-ethylacetamide]",7.9
15,"CCc1ccc2c(c1)nc(N)c1nc(CN(CC)C(C)=O)[nH]c12 [Compound 171, N-[(4-amino-7-ethyl-1H-imidazo[4,5-c]quinolin-2-yl)methyl]-N-ethylacetamide]",3.2
16,"CCCc1ccc2c(c1)nc(N)c1nc(CN(CC)C(C)=O)[nH]c12 [Compound 172, N-[(4-amino-7-propyl-1H-imidazo[4,5-c]quinolin-2-yl)methyl]-N-ethylacetamide]",2.1
17,"CCN(Cc1nc2c(N)nc3cc(C4CCCC4)ccc3c2[nH]1)C(C)=O [Compound 173, N-[(4-amino-7-cyclopentyl-1H-imidazo[4,5-c]quinolin-2-yl)methyl]-N-ethylacetamide]",0.84
18,"CCN(Cc1nc2c(N)nc3cc(-c4cccnc4F)ccc3c2[nH]1)C(C)=O [Compound 175, N-[[4-amino-7-(2-fluoropyridin-3-yl)-1H-imidazo[4,5-c]quinolin-2-yl]methyl]-N-ethylacetamide]",2.6
19,CCN(Cc1nc2c(N)nc3ccccc3c2[nH]1)C(C)=O [Compound 176],25.7
20,CCN(Cc1nc2c(N)nc3cc(Br)ccc3c2[nH]1)C(C)=O [Compound 177],7.4
21,"CCN(Cc1nc2c(N)nc3cc(Cl)ccc3c2[nH]1)C(C)=O [Compound 179, N-[(4-amino-7-chloro-1H-imidazo[4,5-c]quinolin-2-yl)methyl]-N-ethylacetamide]",12.5
22,"CCN(Cc1nc2c(N)nc3cc(-n4cccn4)ccc3c2[nH]1)C(C)=O [Compound 180, N-[(4-amino-7-pyrazol-1-yl-1H-imidazo[4,5-c]quinolin-2-yl)methyl]-N-ethylacetamide]",1.5
